Data set [1] can be described thus: Drug metabolism in human liver microsomes assessed as formation of d5-desmethyl-zicronapine at 10 uM measured after 15 to 180 mins in presence of NADPH regenerating system by LC-MS/MS analysis. The class given is ADME, Microsome. The note with it: time 15-180 min.
Data set [2] concerns the target T1, Cytochrome P450 2C19 (Homo sapiens, UniProt P33261). The data set can be described thus: Drug metabolism assessed as recombinant human liver CYP2C19-mediated formation of d5-desmethyl-zicronapine at 10 uM measured after 15 to 180 mins in presence of zicronapine by LC-MS/MS analysis. The class given is ADME. The note with it: recombinant enzyme, time 15-180 min.

A short description of data set [3]: Drug metabolism in human liver microsomes assessed as formation of desmethyl-zicronapine at 10 uM measured after 15 to 180 mins in presence of NADPH regenerating system by LC-MS/MS analysis. The class given is ADME, Microsome. The note with it: time 15-180 min. A general note: Liver microsomes are a subcellular fraction often used to study metabolism.
Data set [4] addresses T2, Cytochrome P450 3A4 (Homo sapiens, UniProt P08684). The data set can be described thus: Drug metabolism assessed as recombinant human liver CYP3A4-mediated formation of d5-desmethyl-zicronapine at 10 uM measured after 15 to 180 mins in presence of zicronapine by LC-MS/MS analysis. Type of data set: ADME. The note with it: recombinant enzyme, time 15-180 min.
The target in data set [5] is T2, Cytochrome P450 3A4. The data set can be described thus: Drug metabolism assessed as recombinant human liver CYP3A4-mediated formation of desmethyl-zicronapine at 10 uM measured after 15 to 180 mins in presence of Lu AF35700 by LC-MS/MS analysis. The class given is ADME. The settings on record: recombinant enzyme, time 15-180 min.
Data set [6] deals with T2, Cytochrome P450 3A4. The data set can be described thus: Drug metabolism assessed as recombinant human liver CYP3A4-mediated formation of d5-desmethyl-zicronapine at 10 uM measured after 15 to 180 mins in presence of Lu AF35700 by LC-MS/MS analysis. Type of data set: ADME. The settings on record: recombinant enzyme, time 15-180 min.
The target in data set [7] is T1, Cytochrome P450 2C19. The experiment in a line: Drug metabolism assessed as recombinant human liver CYP2C19-mediated formation of desmethyl-zicronapine at 10 uM measured after 15 to 180 mins in presence of Lu AF35700 by LC-MS/MS analysis. Type of data set: ADME. The note with it: recombinant enzyme, time 15-180 min.
For data set [8], the target named is T1, Cytochrome P450 2C19. The experiment in a line: Drug metabolism assessed as recombinant human liver CYP2C19-mediated formation of d5-desmethyl-zicronapine at 10 uM measured after 15 to 180 mins in presence of Lu AF35700 by LC-MS/MS analysis. Type of data set: ADME. The settings on record: recombinant enzyme, time 15-180 min.
In data set [9] the target is T2, Cytochrome P450 3A4. The data set can be described thus: Drug metabolism assessed as recombinant human liver CYP3A4-mediated formation of desmethyl-zicronapine at 10 uM measured after 15 to 180 mins in presence of d5-zicronapine by LC-MS/MS analysis. The settings on record: recombinant enzyme, time 15-180 min. Type of data set: ADME.
Data set [10] addresses T1, Cytochrome P450 2C19. The experiment in a line: Drug metabolism assessed as recombinant human liver CYP2C19-mediated formation of desmethyl-zicronapine at 10 uM measured after 15 to 180 mins in presence of d5-zicronapine by LC-MS/MS analysis. Type of data set: ADME. The settings on record: recombinant enzyme, time 15-180 min.
The target of data set [11] is Alpha-2C adrenergic receptor (Homo sapiens, UniProt P18825). The experiment in a line: Displacement of [3H]RX 821002 from recombinant human alpha2C receptor measured after 60 mins by scintillation counting analysis.
The target in data set [12] is D(3) dopamine receptor (Homo sapiens, UniProt P35462). The data set can be described thus: Displacement of [3H]methyl-spiperone from recombinant human D3 receptor measured after 60 mins by scintillation counting analysis. Background: Displacement assays read how much labelled ligand stays bound in the presence of the test substance.
Data set [13] deals with 5-hydroxytryptamine receptor 2A (Homo sapiens, UniProt P28223). The data set can be described thus: Displacement of [125I](+/-)DOI from recombinant human 5-HT2A receptor measured after 60 mins by scintillation counting analysis.
The target in data set [14] is Alpha-2A adrenergic receptor (Homo sapiens, UniProt P08913). The data set can be described thus: Displacement of [3H]RX 821002 from recombinant human alpha2A receptor measured after 60 mins by scintillation counting analysis.
In data set [15] the target is Histamine H1 receptor (Homo sapiens, UniProt P35367). The experiment in a line: Displacement of [3H]pyrilamine from recombinant human H1 receptor measured after 60 mins by scintillation counting analysis.
Data set [16] deals with Alpha-1D adrenergic receptor (Homo sapiens, UniProt P25100). The experiment in a line: Displacement of [3H]prazosin from recombinant human alpha1D receptor measured after 60 mins by scintillation counting analysis.
In data set [17] the target is Alpha-1B adrenergic receptor (Homo sapiens, UniProt P35368). The experiment in a line: Displacement of [3H]prazosin from recombinant human alpha1B receptor measured after 60 mins by scintillation counting analysis.
The target of data set [18] is 5-hydroxytryptamine receptor 2B (Homo sapiens, UniProt P41595). The data set can be described thus: Displacement of [125I](+/-)DOI from recombinant human 5-HT2B receptor measured after 60 mins by scintillation counting analysis.
In data set [19] the target is D(1B) dopamine receptor (Homo sapiens, UniProt P21918). The experiment in a line: Displacement of [3H]SCH 23390 from recombinant human D5 receptor measured after 60 mins by scintillation counting analysis.
Data set [20] deals with 5-hydroxytryptamine receptor 1B (Rattus norvegicus, UniProt P28564). The experiment in a line: Displacement of [125I]CYP from rat brain 5HT1B receptor measured after 120 mins by scintillation counting analysis.
Data set [21] addresses Alpha-2B adrenergic receptor (Homo sapiens, UniProt P18089). The data set can be described thus: Displacement of [3H]RX 821002 from recombinant human alpha2B receptor measured after 60 mins by scintillation counting analysis.
For data set [22], the target named is Sodium-dependent dopamine transporter (Homo sapiens, UniProt Q01959). The experiment in a line: Displacement of [3H]BTCP from recombinant human DAT measured after 120 mins by scintillation counting analysis.
For data set [23], the target named is 5-hydroxytryptamine receptor 1A (Homo sapiens, UniProt P08908). The experiment in a line: Displacement of [3H]8-OH-DPAT from recombinant human 5-HT1A receptor measured after 60 mins by scintillation counting analysis.
In data set [24] the target is 5-hydroxytryptamine receptor 2C (Homo sapiens, UniProt P28335). The experiment in a line: Displacement of [125I](+/-)DOI from recombinant human 5-HT2C receptor measured after 60 mins by scintillation counting analysis.
In data set [25] the target is D(4) dopamine receptor (Homo sapiens, UniProt P21917). The experiment in a line: Displacement of [3H]methyl-spiperone from recombinant human D4.4 receptor measured after 60 mins by scintillation counting analysis.
For data set [26], the target named is D(1A) dopamine receptor (Homo sapiens, UniProt P21728). The experiment in a line: Displacement of [3H]SCH 23390 from recombinant human D1 receptor measured after 60 mins by scintillation counting analysis.
For data set [27], the target named is 5-hydroxytryptamine receptor 7 (Homo sapiens, UniProt P34969). The data set can be described thus: Displacement of [3H]LSD from recombinant human 5-HT7 receptor measured after 120 mins by scintillation counting analysis.
Data set [28] deals with Alpha-1A adrenergic receptor (Homo sapiens, UniProt P35348). The experiment in a line: Displacement of [3H]prazosin from recombinant human alpha1A receptor measured after 60 mins by scintillation counting analysis.
Data set [29] has as its target D(2) dopamine receptor (Homo sapiens, UniProt P14416). The data set can be described thus: Displacement of [3H]7-OH-DPAT from recombinant human D2S receptor measured after 60 mins by scintillation counting analysis.
Data set [30] concerns the target 5-hydroxytryptamine receptor 6 (Homo sapiens, UniProt P50406). The data set can be described thus: Displacement of [3H]LSD from recombinant human 5-HT6 receptor measured after 120 mins by scintillation counting analysis.

T2 sequence (P08684 whole entry): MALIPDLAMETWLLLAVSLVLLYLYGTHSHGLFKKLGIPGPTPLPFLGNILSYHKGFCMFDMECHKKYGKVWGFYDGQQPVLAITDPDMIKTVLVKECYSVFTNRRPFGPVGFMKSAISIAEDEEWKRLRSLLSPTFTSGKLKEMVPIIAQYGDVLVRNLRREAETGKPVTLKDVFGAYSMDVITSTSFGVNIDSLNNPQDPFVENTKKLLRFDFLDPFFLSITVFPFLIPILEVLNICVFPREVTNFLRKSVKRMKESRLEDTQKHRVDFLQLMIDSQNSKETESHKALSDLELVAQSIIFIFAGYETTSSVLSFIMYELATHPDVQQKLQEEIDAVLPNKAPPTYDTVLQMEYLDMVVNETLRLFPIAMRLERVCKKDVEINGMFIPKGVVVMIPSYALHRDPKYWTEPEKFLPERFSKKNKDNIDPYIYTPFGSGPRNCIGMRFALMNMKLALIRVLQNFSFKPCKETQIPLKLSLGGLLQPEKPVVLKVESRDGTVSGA
T1 sequence (P33261 whole entry): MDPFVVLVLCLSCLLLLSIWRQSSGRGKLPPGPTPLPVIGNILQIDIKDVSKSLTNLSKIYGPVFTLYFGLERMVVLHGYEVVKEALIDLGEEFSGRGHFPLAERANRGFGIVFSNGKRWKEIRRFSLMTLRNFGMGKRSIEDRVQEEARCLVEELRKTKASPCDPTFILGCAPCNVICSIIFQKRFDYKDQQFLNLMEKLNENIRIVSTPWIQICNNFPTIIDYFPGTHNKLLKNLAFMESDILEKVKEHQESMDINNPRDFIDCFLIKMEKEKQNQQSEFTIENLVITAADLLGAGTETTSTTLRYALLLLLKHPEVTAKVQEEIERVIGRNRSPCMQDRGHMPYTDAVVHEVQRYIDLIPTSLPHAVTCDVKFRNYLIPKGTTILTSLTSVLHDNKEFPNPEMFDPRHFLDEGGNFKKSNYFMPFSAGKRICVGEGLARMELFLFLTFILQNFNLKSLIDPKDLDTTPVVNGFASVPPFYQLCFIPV
Chain of 5-hydroxytryptamine receptor 7 (P34969 whole entry): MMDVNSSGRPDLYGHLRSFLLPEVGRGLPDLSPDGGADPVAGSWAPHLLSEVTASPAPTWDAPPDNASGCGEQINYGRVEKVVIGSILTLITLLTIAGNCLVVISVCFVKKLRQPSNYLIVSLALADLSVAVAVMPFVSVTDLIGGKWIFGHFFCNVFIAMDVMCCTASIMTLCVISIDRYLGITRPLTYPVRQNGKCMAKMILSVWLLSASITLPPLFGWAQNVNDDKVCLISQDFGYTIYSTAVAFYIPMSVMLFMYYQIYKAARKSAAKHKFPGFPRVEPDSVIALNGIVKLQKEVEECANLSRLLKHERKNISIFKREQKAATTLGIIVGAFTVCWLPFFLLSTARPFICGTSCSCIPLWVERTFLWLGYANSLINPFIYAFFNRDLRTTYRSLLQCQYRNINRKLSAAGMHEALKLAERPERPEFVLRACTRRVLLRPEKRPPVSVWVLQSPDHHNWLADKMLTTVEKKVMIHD
Chain of Alpha-1A adrenergic receptor (P35348 whole entry): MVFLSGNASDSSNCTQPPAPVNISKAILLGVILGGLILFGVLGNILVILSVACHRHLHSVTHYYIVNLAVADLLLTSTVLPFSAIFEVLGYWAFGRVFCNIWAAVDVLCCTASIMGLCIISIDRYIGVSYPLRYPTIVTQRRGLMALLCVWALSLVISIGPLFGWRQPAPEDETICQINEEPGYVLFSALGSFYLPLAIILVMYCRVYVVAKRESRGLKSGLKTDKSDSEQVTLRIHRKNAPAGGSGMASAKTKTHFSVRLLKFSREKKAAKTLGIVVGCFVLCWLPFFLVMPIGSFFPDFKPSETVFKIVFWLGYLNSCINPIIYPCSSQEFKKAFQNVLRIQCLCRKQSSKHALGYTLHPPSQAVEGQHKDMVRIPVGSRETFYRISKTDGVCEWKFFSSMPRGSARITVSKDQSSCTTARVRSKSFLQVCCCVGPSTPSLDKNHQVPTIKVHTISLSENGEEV
Chain of 5-hydroxytryptamine receptor 2C (P28335 whole entry): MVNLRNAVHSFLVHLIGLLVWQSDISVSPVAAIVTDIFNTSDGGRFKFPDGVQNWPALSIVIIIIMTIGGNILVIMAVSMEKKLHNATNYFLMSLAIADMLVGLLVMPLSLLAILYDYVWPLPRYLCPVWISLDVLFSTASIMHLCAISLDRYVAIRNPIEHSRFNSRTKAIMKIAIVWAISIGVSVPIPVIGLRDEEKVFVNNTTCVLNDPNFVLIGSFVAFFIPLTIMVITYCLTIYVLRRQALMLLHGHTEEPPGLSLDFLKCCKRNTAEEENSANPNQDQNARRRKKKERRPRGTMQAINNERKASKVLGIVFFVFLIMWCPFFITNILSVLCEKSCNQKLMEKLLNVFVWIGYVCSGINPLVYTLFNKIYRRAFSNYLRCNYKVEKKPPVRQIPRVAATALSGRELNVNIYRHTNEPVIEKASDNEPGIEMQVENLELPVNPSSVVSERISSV
Chain of Histamine H1 receptor (P35367 whole entry): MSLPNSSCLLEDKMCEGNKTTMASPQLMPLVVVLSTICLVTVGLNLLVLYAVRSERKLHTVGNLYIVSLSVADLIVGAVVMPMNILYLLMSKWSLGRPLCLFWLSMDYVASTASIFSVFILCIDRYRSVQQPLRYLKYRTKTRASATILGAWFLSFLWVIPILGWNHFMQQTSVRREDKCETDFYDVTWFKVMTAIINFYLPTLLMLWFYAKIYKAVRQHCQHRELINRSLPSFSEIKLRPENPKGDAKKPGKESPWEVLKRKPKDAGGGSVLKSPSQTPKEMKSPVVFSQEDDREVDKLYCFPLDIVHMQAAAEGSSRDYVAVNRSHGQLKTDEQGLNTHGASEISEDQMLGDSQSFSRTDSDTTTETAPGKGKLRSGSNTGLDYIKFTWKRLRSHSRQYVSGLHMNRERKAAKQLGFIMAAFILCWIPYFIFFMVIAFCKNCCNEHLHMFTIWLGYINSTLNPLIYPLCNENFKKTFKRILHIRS
Chain of Alpha-1B adrenergic receptor (P35368 whole entry): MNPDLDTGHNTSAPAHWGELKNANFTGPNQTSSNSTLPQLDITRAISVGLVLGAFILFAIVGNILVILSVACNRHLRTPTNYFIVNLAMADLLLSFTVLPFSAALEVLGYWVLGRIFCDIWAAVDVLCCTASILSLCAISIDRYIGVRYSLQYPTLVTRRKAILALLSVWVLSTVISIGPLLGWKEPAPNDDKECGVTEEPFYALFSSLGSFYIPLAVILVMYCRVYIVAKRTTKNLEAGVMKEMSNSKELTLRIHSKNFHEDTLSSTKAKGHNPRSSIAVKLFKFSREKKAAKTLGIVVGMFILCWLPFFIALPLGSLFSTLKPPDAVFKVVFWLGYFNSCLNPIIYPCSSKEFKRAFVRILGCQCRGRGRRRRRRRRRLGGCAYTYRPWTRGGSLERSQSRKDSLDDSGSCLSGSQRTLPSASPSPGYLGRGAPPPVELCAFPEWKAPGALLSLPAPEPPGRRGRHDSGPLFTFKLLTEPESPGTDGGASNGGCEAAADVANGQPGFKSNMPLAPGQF
Chain of Alpha-2C adrenergic receptor (P18825 whole entry): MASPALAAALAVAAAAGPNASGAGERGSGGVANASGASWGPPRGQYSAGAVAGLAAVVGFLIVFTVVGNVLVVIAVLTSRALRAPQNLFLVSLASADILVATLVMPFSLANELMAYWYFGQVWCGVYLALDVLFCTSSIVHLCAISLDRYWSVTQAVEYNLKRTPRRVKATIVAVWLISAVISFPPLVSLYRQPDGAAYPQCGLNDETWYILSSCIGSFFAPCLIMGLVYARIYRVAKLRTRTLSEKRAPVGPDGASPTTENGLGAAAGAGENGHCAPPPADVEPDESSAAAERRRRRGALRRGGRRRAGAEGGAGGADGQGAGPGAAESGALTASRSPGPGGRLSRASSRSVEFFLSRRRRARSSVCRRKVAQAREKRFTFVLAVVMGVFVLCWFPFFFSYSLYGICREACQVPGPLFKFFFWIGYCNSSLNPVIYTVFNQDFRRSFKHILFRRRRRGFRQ
Chain of Alpha-1D adrenergic receptor (P25100 whole entry): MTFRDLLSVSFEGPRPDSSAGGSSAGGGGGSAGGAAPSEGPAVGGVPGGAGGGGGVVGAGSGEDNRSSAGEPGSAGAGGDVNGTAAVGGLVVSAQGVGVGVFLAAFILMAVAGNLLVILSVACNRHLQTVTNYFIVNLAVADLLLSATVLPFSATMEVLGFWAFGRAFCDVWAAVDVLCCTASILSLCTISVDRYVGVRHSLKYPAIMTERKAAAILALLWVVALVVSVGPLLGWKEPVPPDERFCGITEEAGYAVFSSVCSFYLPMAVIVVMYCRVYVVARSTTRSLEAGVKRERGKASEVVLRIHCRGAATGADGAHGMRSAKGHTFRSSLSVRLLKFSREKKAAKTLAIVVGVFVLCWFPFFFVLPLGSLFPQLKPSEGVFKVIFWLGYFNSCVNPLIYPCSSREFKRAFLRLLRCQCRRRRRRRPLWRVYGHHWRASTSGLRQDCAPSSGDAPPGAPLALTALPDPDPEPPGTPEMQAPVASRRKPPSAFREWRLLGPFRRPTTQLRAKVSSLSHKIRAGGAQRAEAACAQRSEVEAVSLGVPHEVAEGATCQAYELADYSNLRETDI
Chain of D(4) dopamine receptor (P21917 whole entry): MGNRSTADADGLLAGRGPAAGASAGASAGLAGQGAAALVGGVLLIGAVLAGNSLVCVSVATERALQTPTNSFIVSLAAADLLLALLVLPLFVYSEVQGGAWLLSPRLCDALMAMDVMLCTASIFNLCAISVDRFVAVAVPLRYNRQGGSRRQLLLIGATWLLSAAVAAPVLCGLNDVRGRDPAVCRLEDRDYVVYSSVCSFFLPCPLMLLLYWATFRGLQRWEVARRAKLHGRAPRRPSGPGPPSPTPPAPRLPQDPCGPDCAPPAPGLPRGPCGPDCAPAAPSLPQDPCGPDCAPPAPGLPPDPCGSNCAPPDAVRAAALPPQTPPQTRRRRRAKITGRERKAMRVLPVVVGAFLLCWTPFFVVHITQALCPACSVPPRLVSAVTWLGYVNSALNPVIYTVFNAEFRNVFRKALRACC

As to `[2H]c1c([2H])c([2H])c([C@@H]2C[C@@H](N3CCN(C)C(C)(C)C3)c3cc(Cl)ccc32)c([2H])c1[2H]`, the Drug metabolism result in data set [1], in [2], in [3] and in data set [4] was “Metabolite_Detected” each time.
Regarding `CN1CCN([C@@H]2C[C@@H](c3ccccc3)c3ccc(Cl)cc32)CC1(C)C` [ZICRONAPINE], the Drug metabolism result in data set [5], in [6], in data set [7], in [8], in data set [9] and in [10] was “Metabolite_Detected” in each case.
Broadly, the Ki is a measure of affinity in units of concentration, obtained from inhibition or displacement. For the compound `[2H]c1c([2H])c([2H])c([C@@H]2C[C@@H](N3CCNC(C)(C)C3)c3cc(Cl)ccc32)c([2H])c1[2H]`, the Ki amounted to 0.16 µM in data set [11]; 0.059 µM in data set [12]; 0.00084 µM in data set [13]; 2.5 µM in data set [14]; 0.0066 µM in data set [15]; 0.035 µM in data set [16]. The Ki in data set [17] stood at 0.011 µM; in data set [18], 0.00039 µM; in [19], 0.00067 µM; in data set [20], 0.66 µM; in data set [21], 0.49 µM; in data set [22] it was 0.51 µM. The Ki in data set [23] came out at 0.42 µM; in data set [24], 0.0011 µM; in data set [25], 0.011 µM; in data set [26] it was 0.001 µM; in data set [27], 0.011 µM; in data set [28], 0.013 µM. The inhibition constant (Ki) in [29] is 0.011 µM; in data set [30], 0.00073 µM.
Turning to `[2H]c1c([2H])c([2H])c([C@@H]2C[C@@H](N3CCN(C([2H])([2H])[2H])C(C)(C)C3)c3cc(Cl)ccc32)c([2H])c1[2H]`, the Ki in [11] was determined as 0.0097 µM; in data set [12] it was 0.016 µM; in [14] it was 0.56 µM; in data set [15], 0.004 µM; in data set [16] it was 0.0095 µM; in data set [17], 0.0029 µM. For the same compound, the inhibition constant (Ki) stood at 0.0004 µM in data set [18]; 0.00037 µM in data set [19]; 0.17 µM in data set [20]; 0.047 µM in data set [21]; 4.2 µM in data set [22]; 0.089 µM in [23]. Besides, the Ki is 0.0015 µM in [24], 0.0068 µM in data set [25], 0.0038 µM in data set [27] and 0.0034 µM in data set [28]. Moreover, the Drug metabolism result in data set [1], in data set [2], in [3] and in data set [4] was “Metabolite_Detected” in each case.

These data come from ChEMBL document CHEMBL5113485, “Distal kinetic deuterium isotope effect: Phenyl ring deuteration attenuates N-demethylation of Lu AF35700” (Bioorg Med Chem Lett, 2022).
